# Tested on: 186277-243-T-J2-PDC complex spheroids, viability
# Test: Anticancer human tumor 186277-243-T-J2-PDC patient-derived colon adenocarcinoma cell line growth inhibition [RAS]
# Details: for IC50: curve of first compound; for viability, T/C: stronger effect = lower value
# Outline: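 Agents were tested in combination matrices in half-log decrements from a top concentration at or near clinical Cmax (10 microM if undetermined). Targets were multi-cell spheroids of tumour lines plus HUVEC and MSC stromal cells.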
# [1] = second compound 0.000949 µM, first compound 0.0316 µM
# [2] = second compound 0.000949 µM, first compound 0.1 µM
# [3] = second compound 0.000949 µM, first compound 0.316 µM
# [4] = second compound 0.000949 µM, first compound 1 µM
# [5] = second compound 0.000949 µM, first compound 3.16 µM
# [6] = second compound 0.000949 µM, first compound 10 µM
# [7] = second compound 0.003 µM, first compound 0.0316 µM
# [8] = second compound 0.003 µM, first compound 0.1 µM
# [9] = second compound 0.003 µM, first compound 0.316 µM
# [10] = second compound 0.003 µM, first compound 1 µM
# [11] = second compound 0.003 µM, first compound 3.16 µM
# [12] = second compound 0.003 µM, first compound 10 µM
# [13] = second compound 0.00949 µM, first compound 0.0316 µM
# [14] = second compound 0.00949 µM, first compound 0.1 µM
# [15] = second compound 0.00949 µM, first compound 0.316 µM
# [16] = second compound 0.00949 µM, first compound 1 µM
# [17] = second compound 0.00949 µM, first compound 3.16 µM
# [18] = second compound 0.00949 µM, first compound 10 µM
# [19] = second compound 0.03 µM, first compound 0.0316 µM
# [20] = second compound 0.03 µM, first compound 0.1 µM
# [21] = second compound 0.03 µM, first compound 0.316 µM
# [22] = second compound 0.03 µM, first compound 1 µM
# [23] = second compound 0.03 µM, first compound 3.16 µM
# [24] = second compound 0.03 µM, first compound 10 µM
# [25] = second compound 0.0949 µM, first compound 0.0316 µM
# [26] = second compound 0.0949 µM, first compound 0.1 µM
# [27] = second compound 0.0949 µM, first compound 0.316 µM
# [28] = second compound 0.0949 µM, first compound 1 µM
# [29] = second compound 0.0949 µM, first compound 3.16 µM
# [30] = second compound 0.0949 µM, first compound 10 µM
# [31] = second compound 0.3 µM, first compound 0.0316 µM
# [32] = second compound 0.3 µM, first compound 0.1 µM
# [33] = second compound 0.3 µM, first compound 0.316 µM
# [34] = second compound 0.3 µM, first compound 1 µM
# [35] = second compound 0.3 µM, first compound 3.16 µM
# [36] = second compound 0.3 µM, first compound 10 µM
# 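Also: spheroids exposed to compounds for 7 days before viability read.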
structure (smiles),measurement,setting,value
CC1(O)CCCC1n1c(=O)c(C(F)F)cc2cnc(NC3CCN(S(C)(=O)=O)CC3)nc21 (stereo unspecified) + CCn1c(-c2cccnc2C(C)OC)c2c3cc(ccc31)N1CCOC(CC(NC(=O)C(C(C)C)N(C)C(=O)C3(F)CCN(C(=O)C#CC(C)(C)N(C)C)CC3)C(=O)N3CCCC(N3)C(=O)OCC(C)(C)C2)C1,IC50,second compound 0.000949 µM,4330 nM
same,IC50,second compound 0.003 µM,4480 nM
same,IC50,second compound 0.00949 µM,4380 nM
same,IC50,second compound 0.03 µM,4350 nM
same,IC50,second compound 0.0949 µM,3590 nM
same,IC50,second compound 0.3 µM,1170 nM
same,"viability, T/C",[1],129%
same,"viability, T/C",[2],113%
same,"viability, T/C",[3],122%
same,"viability, T/C",[4],86.7%
same,"viability, T/C",[5],74.8%
same,"viability, T/C",[6],1.88%
same,"viability, T/C",[7],96.5%
same,"viability, T/C",[8],122%
same,"viability, T/C",[9],104%
same,"viability, T/C",[10],93.2%
same,"viability, T/C",[11],71.7%
same,"viability, T/C",[12],2.18%
same,"viability, T/C",[13],116%
same,"viability, T/C",[14],116%
same,"viability, T/C",[15],115%
same,"viability, T/C",[16],84.3%
same,"viability, T/C",[17],75.7%
same,"viability, T/C",[18],2.28%
same,"viability, T/C",[19],111%
same,"viability, T/C",[20],117%
same,"viability, T/C",[21],108%
same,"viability, T/C",[22],80.3%
same,"viability, T/C",[23],77.2%
same,"viability, T/C",[24],1.84%
same,"viability, T/C",[25],108%
same,"viability, T/C",[26],113%
same,"viability, T/C",[27],80.9%
same,"viability, T/C",[28],73.3%
same,"viability, T/C",[29],69%
same,"viability, T/C",[30],1.68%
same,"viability, T/C",[31],114%
same,"viability, T/C",[32],91.7%
same,"viability, T/C",[33],56.2%
same,"viability, T/C",[34],56.8%
same,"viability, T/C",[35],53.8%
same,"viability, T/C",[36],0.94%
CCC(CC)c1cc(NC2CCC(N)C2)n2nccc2n1 (stereo unspecified) + CCn1c(-c2cccnc2C(C)OC)c2c3cc(ccc31)N1CCOC(CC(NC(=O)C(C(C)C)N(C)C(=O)C3(F)CCN(C(=O)C#CC(C)(C)N(C)C)CC3)C(=O)N3CCCC(N3)C(=O)OCC(C)(C)C2)C1,IC50,second compound 0.000949 µM,1730 nM
same,IC50,second compound 0.003 µM,1780 nM
same,IC50,second compound 0.00949 µM,1880 nM
same,IC50,second compound 0.03 µM,1890 nM
same,IC50,second compound 0.0949 µM,1540 nM
same,IC50,second compound 0.3 µM,1210 nM
same,"viability, T/C",[1],105%
same,"viability, T/C",[2],91.8%
same,"viability, T/C",[3],90.4%
same,"viability, T/C",[4],91.2%
same,"viability, T/C",[5],4.89%
same,"viability, T/C",[6],0.44%
same,"viability, T/C",[7],96%
same,"viability, T/C",[8],86.7%
same,"viability, T/C",[9],98%
same,"viability, T/C",[10],101%
same,"viability, T/C",[11],4.58%
same,"viability, T/C",[12],0.37%
same,"viability, T/C",[13],99.4%
same,"viability, T/C",[14],87.2%
same,"viability, T/C",[15],91.9%
same,"viability, T/C",[16],103%
same,"viability, T/C",[17],12.8%
same,"viability, T/C",[18],0.38%
same,"viability, T/C",[19],107%
same,"viability, T/C",[20],107%
same,"viability, T/C",[21],97.7%
same,"viability, T/C",[22],113%
same,"viability, T/C",[23],4.88%
same,"viability, T/C",[24],0.35%
same,"viability, T/C",[25],111%
same,"viability, T/C",[26],103%
same,"viability, T/C",[27],108%
same,"viability, T/C",[28],77.6%
same,"viability, T/C",[29],4.31%
same,"viability, T/C",[30],0.37%
same,"viability, T/C",[31],102%
same,"viability, T/C",[32],108%
same,"viability, T/C",[33],98.2%
same,"viability, T/C",[34],59.5%
same,"viability, T/C",[35],3.42%
same,"viability, T/C",[36],0.42%
CCN1CCN(Cc2ccc(Nc3ncc(F)c(-c4cc(F)c5nc(C)n(C(C)C)c5c4)n3)nc2)CC1 + CCn1c(-c2cccnc2C(C)OC)c2c3cc(ccc31)N1CCOC(CC(NC(=O)C(C(C)C)N(C)C(=O)C3(F)CCN(C(=O)C#CC(C)(C)N(C)C)CC3)C(=O)N3CCCC(N3)C(=O)OCC(C)(C)C2)C1,IC50,second compound 0.000949 µM,> 1000 nM
same,IC50,second compound 0.003 µM,> 1000 nM
same,IC50,second compound 0.00949 µM,> 1000 nM
same,IC50,second compound 0.03 µM,> 1000 nM
same,IC50,second compound 0.0949 µM,> 1000 nM
same,IC50,second compound 0.3 µM,> 1000 nM
same,"viability, T/C","second compound 0.000949 µM, first compound 0.00316 µM",123%
same,"viability, T/C","second compound 0.000949 µM, first compound 0.01 µM",105%
same,"viability, T/C",[1],135%
same,"viability, T/C",[2],140%
same,"viability, T/C",[3],184%
same,"viability, T/C",[4],126%
same,"viability, T/C","second compound 0.003 µM, first compound 0.00316 µM",109%
same,"viability, T/C","second compound 0.003 µM, first compound 0.01 µM",95.8%
same,"viability, T/C",[7],135%
same,"viability, T/C",[8],160%
same,"viability, T/C",[9],168%
same,"viability, T/C",[10],128%
same,"viability, T/C","second compound 0.00949 µM, first compound 0.00316 µM",85.8%
same,"viability, T/C","second compound 0.00949 µM, first compound 0.01 µM",116%
same,"viability, T/C",[13],97.7%
same,"viability, T/C",[14],162%
same,"viability, T/C",[15],180%
same,"viability, T/C",[16],132%
same,"viability, T/C","second compound 0.03 µM, first compound 0.00316 µM",102%
same,"viability, T/C","second compound 0.03 µM, first compound 0.01 µM",136%
same,"viability, T/C",[19],135%
same,"viability, T/C",[20],155%
same,"viability, T/C",[21],171%
same,"viability, T/C",[22],110%
same,"viability, T/C","second compound 0.0949 µM, first compound 0.00316 µM",118%
same,"viability, T/C","second compound 0.0949 µM, first compound 0.01 µM",134%
same,"viability, T/C",[25],122%
same,"viability, T/C",[26],142%
same,"viability, T/C",[27],142%
same,"viability, T/C",[28],90.7%
same,"viability, T/C","second compound 0.3 µM, first compound 0.00316 µM",134%
same,"viability, T/C","second compound 0.3 µM, first compound 0.01 µM",113%
same,"viability, T/C",[31],123%
same,"viability, T/C",[32],116%
same,"viability, T/C",[33],104%
same,"viability, T/C",[34],58.6%
